Measurements from patent publication EP0023103A1, “Antifungal imidazole derivatives, process for their preparation and pharmaceutical compositions thereof” (Pfizer Limited, priority 1979, dated 1981).

System: Candida albicans
Assay: In vitro anti-fungal activity: minimum inhibitory concentration (m.i.c.) on agar plates
Type: cell-based
Conditions: geometrical mean of results against a panel of 12 strains of Candida albicans; agar plates incubated for 48 hours at 37°C

Structure (SMILES) | Mean m.i.c.
CC(C)CCC(O)(Cn1ccnc1)c1ccc(Cl)cc1Cl (stereo not shown) [Example 18] | 3.8
CCC(C)C(O)(Cn1ccnc1)c1ccc(Cl)cc1Cl (stereo not shown) [Example 4, 2-(2,4-Dichlorophenyl)-1-(1-imidazolyl)-3-methyl-pentan-2-ol] | 12.0
CC(C)CC(O)(Cn1ccnc1)c1ccc(Cl)cc1Cl (stereo not shown) [Example 16] | 5.6
CCCCCCC(O)(Cn1ccnc1)c1ccc(Cl)cc1Cl (stereo not shown) [Example 10, 2-(2,4-dichlorophenyl)-1-(1-imidazolyl)-octan-2-ol] | 3.1
C=CC(C)C(O)(Cn1ccnc1)c1ccc(Cl)cc1Cl (single isomer, unassigned) [Example 3a, 2-(2,4-Dichlorophenyl)-1-(1-imidazolyl)-3-methyl-pent-4-en-2-ol] | 18.0
C=CCCCC(O)(Cn1ccnc1)c1ccc(Cl)cc1Cl (stereo not shown) [Example 17] | 8.4
C=CC(C)C(O)(Cn1ccnc1)c1ccc(Cl)cc1Cl (single isomer, unassigned) [Example 3b, 2-(2,4-Dichlorophenyl)-1-(1-imidazolyl)-3-methyl-pent-4-en-2-ol] | 11.0
CCC(O)(Cn1ccnc1)c1ccc(Cl)cc1Cl (stereo not shown) [Example 5, 2-(2,4-dichlorophenyl)-1-(1-imidazolyl)-butan-2-ol] | 21.0
C=CCC(O)(Cn1ccnc1)c1ccc(Cl)cc1Cl (stereo not shown) [Example 1, 2-(2,4-Dichlorophenyl)-1-(1-imidazolyl)-pent-4-en-2-ol] | 22.0
CCCCC(O)(Cn1ccnc1)c1ccc(Cl)cc1Cl (stereo not shown) [Example 6] | 3.8
CCCCC(O)(Cn1ccnc1)c1ccccc1Cl (stereo not shown) [Example 21, 2-(2-Chlorophenyl)-1-(1-imidazolyl)-hexan-2-ol] | 18.0
CCCCCCCC(O)(Cn1ccnc1)c1ccc(Cl)cc1Cl (stereo not shown) [Example 19] | 5.6
C=CCCC(O)(Cn1ccnc1)c1ccc(Cl)cc1Cl (stereo not shown) [Example 11] | 6.8
CCCCC(O)(Cn1ccnc1)c1ccc(Cl)cc1 (stereo not shown) [Example 20, 2-(4-Chlorophenyl)-1-(1-imidazolyl)-hexan-2-ol] | 38.0
CC(C)(C)C(O)(Cn1ccnc1)c1ccc(Cl)cc1Cl (stereo not shown) [Example 7] | 11.0
OC(CC1CC1)(Cn1ccnc1)c1ccc(Cl)cc1Cl (stereo not shown) [Example 15] | 6.3
CCCCCC(O)(Cn1ccnc1)c1ccc(Cl)cc1Cl (stereo not shown) [Example 9] | 5.2
CCCC(O)(Cn1ccnc1)c1ccc(Cl)cc1Cl (stereo not shown) [Example 2, 2-(2,4-Dichlorophenyl)-1-(1-imidazolyl)-pentan-2-ol] | 12.5
CC(C)C(O)(Cn1ccnc1)c1ccc(Cl)cc1Cl (stereo not shown) [Example 8] | 21.0
